Measurements taken from patent US9920339B2, “Methods, reagents and cells for biosynthesizing compounds” (INVISTA North America S.á r.l., priority 2014, dated 2018).

Assays:
[1] = test system: 5-aminovalerate transaminase from Clostridium viride; settings: Barker et al., 1987; cited from earlier work
[2] = test system: ω-transaminase from Chromobacterium violaceum (SEQ ID NO: 8); settings: Kaulmann et al., 2007; cited from earlier work
[3] = test system: 4-aminobubyrate:2-oxoglutarate transaminase from Streptomyces griseus; settings: Yonaha et al., 1985; cited from earlier work
[4] = test system: Pseudomonas aeruginosa ω-transaminase (SEQ ID NO: 9); assay: ω-transaminase enzyme activity assay, amine substrate plus pyruvate to L-alanine (cell free extract); assay type: biochemical; settings: reverse direction, 10 mM substrate, 10 mM pyruvate, 100 μM pyridoxyl 5′ phosphate, pH 7.5, 25° C., 4 h, L-alanine by RP-HPLC
Experimental: (§1) A nucleotide sequence encoding an N-terminal His-tag was added to the Chromobacterium violaceum, Pseudomonas aeruginosa, Pseudomonas syringae, Rhodobacter sphaeroide, Escherichia coli and Vibrio fluvialis genes encoding the ω-transaminases of SEQ ID NOs: 8-13, respectively (see FIG. 10) such that N-terminal HIS tagged ω-transaminases could be produced. The modified genes were cloned into a pET21a expression vector under the T7 promoter. Each expression vector was transformed into a BL21[DE3] E. coli host. Each resulting recombinant E. coli strain were cultivated at 37° C. in a 250 mL shake flask culture containing 50 mL LB media and antibiotic selection pressure, with shaking at 230 rpm. Each culture was induced overnight at 16° C. using 1 mM IPTG.
(§2) The pellet from each induced shake flask culture was harvested via centrifugation. Each pellet was resuspended and lysed via sonication. The cell debris was separated from the supernatant via centrifugation and the cell free extract was used immediately in enzyme activity assays.
(§3) Enzyme activity assays in the reverse direction (i.e., 5-aminopentanol to 5-oxopentanol) were performed in a buffer composed of a final concentration of 50 mM HEPES buffer (pH=7.5), 10 mM 5-aminopentanol, 10 mM pyruvate, and 100 μM pyridoxyl 5′ phosphate. Each enzyme activity assay reaction was initiated by adding cell free extract of the ω-transaminase gene product or the empty vector control to the assay buffer containing the 5-aminopentanol and then incubated at 25° C. for 4 h, with shaking at 250 rpm. The formation of L-alanine was quantified via RP-HPLC.
as §1, with “and” for “Rhodobacter sphaeroide,”, “coli” for “coli and Vibrio fluvialis”, “8-10 and 12,” for “8-13,”
as §3, with “cadaverine” for “5-aminopentanol”, “5-aminopentanal)” for “5-oxopentanol)”, “cadaverine,” for “5-aminopentanol,”
(§4) The activity of the N-terminal His-tagged ω-transaminases of SEQ ID NOs: 8-13 (see Example 3, and FIG. 10) for converting 1-aminopentane to pentanal was assayed using a buffer composed of a final concentration of 50 mM HEPES buffer (pH=7.5), 10 mM 1-aminopentane, 10 mM pyruvate and 100 μM pyridoxyl 5′ phosphate. Each enzyme activity assay reaction was initiated by adding a cell free extract of the ω-transaminase or the empty vector control to the assay buffer containing the 1-aminopentane then incubated at 25° C. for 4 h, with shaking at 250 rpm. The formation of L-alanine was quantified via RP-HPLC.
(§5) The activity of the N-terminal His-tagged ω-transaminases of SEQ ID NOs: 8-13 (see Example 3, and FIG. 10) for converting 1-aminoheptane to heptanal was assayed using a buffer composed of a final concentration of 50 mM HEPES buffer (pH=7.5), 10 mM 1-aminoheptane, 10 mM pyruvate and 100 μM pyridoxyl 5′ phosphate. […]

gene product of ygjG = gene product of ygjG (Escherichia coli, UniProt P42588); settings: Samsonova et al., 2003; cited from earlier work
[5] = test system: diamine transaminase from E. coli strain B; settings: Kim, 1964; cited from earlier work
[6] = target: T1, Escherichia coli ω-transaminase (SEQ ID NO: 12) (Escherichia coli, UniProt P42588); assay: ω-transaminase enzyme activity assay, amine substrate plus pyruvate to L-alanine (cell free extract); assay type: biochemical; settings: reverse direction, 10 mM substrate, 10 mM pyruvate, 100 μM pyridoxyl 5′ phosphate, pH 7.5, 25° C., 4 h, L-alanine by RP-HPLC
T1 construct: His-tag (N); made in house; host or cells: E. coli BL21[DE3], pET21a
Experimental: as §1, §2, §3
as §1, with “and” for “Rhodobacter sphaeroide,”, “coli” for “coli and Vibrio fluvialis”, “8-10 and 12,” for “8-13,”
as §3, with “cadaverine” for “5-aminopentanol”, “5-aminopentanal)” for “5-oxopentanol)”, “cadaverine,” for “5-aminopentanol,”
as §4, with “8, 10-13” for “8-13”, “N5-acetyl-1,5-diaminopentane” for “1-aminopentane”, “N5-acetyl-5-aminopentanal” for “pentanal”, “N5-acetyl-1,5-diaminopentane,” for “1-aminopentane,”
as §5, with “1-aminopentane” for “1-aminoheptane”, “pentanal” for “heptanal”, “1-aminopentane,” for “1-aminoheptane,”

[7] = test system: Pseudomonas syringae ω-transaminase (SEQ ID NO: 10); assay: as above; assay type: biochemical; settings: reverse direction, 10 mM substrate, 10 mM pyruvate, 100 μM pyridoxyl 5′ phosphate, pH 7.5, 25° C., 4 h, L-alanine by RP-HPLC
Experimental: as §1, §2, §3
as §1, with “and” for “Rhodobacter sphaeroide,”, “coli” for “coli and Vibrio fluvialis”, “8-10 and 12,” for “8-13,”
as §3, with “cadaverine” for “5-aminopentanol”, “5-aminopentanal)” for “5-oxopentanol)”, “cadaverine,” for “5-aminopentanol,”
as §4, with “8, 10-13” for “8-13”, “N5-acetyl-1,5-diaminopentane” for “1-aminopentane”, “N5-acetyl-5-aminopentanal” for “pentanal”, “N5-acetyl-1,5-diaminopentane,” for “1-aminopentane,”
as §5, with “1-aminopentane” for “1-aminoheptane”, “pentanal” for “heptanal”, “1-aminopentane,” for “1-aminoheptane,”

[8] = test system: Chromobacterium violaceum ω-transaminase (SEQ ID NO: 8); assay: as above; assay type: biochemical; settings: reverse direction, 10 mM substrate, 10 mM pyruvate, 100 μM pyridoxyl 5′ phosphate, pH 7.5, 25° C., 4 h, L-alanine by RP-HPLC
Experimental: (§6) A nucleotide sequence encoding an N-terminal His-tag was added to the genes from Chromobacterium violaceum and Rhodobacter sphaeroides encoding the ω-transaminases of SEQ ID NOs: 8 and 10 respectively (see FIG. 10) such that N-terminal HIS tagged ω-transaminases could be produced. Each of the resulting modified genes was cloned into a pET21a expression vector under control of the T7 promoter and each expression vector was transformed into a BL21[DE3] E. coli host. The resulting recombinant E. coli strains were cultivated at 37° C. in a 250 mL shake flask culture containing 50 mL LB media and antibiotic selection pressure, with shaking at 230 rpm. Each culture was induced overnight at 16° C. using 1 mM IPTG.
as §2
as §3, with “5-aminopentanoate” for “5-aminopentanol”, “glutarate semialdehyde)” for “5-oxopentanol)”, “5-aminopentanoate,” for “5-aminopentanol,”, “pyruvate” for “pyruvate,”, “and” for “and then”, “L-alanine from pyruvate” for “L-alanine”
as §1, §3
as §1, with “and” for “Rhodobacter sphaeroide,”, “coli” for “coli and Vibrio fluvialis”, “8-10 and 12,” for “8-13,”
Enzyme activity assays in the reverse direction (i.e., cadaverine to 5-aminopentanal) were performed in a buffer composed of a final concentration of 50 mM HEPES buffer (pH=7.5), 10 mM cadaverine, 10 mM pyruvate, and 100 μM pyridoxyl 5′ phosphate. […]

[9] = test system: Segniliparus rotundus carboxylate reductase (SEQ ID NO: 7), enhanced by the gene product of sfp; assay: carboxylate reductase enzyme activity assay, NADPH consumption at 340 nm; assay type: biochemical; settings: SEQ ID NO 7 with sfp; 2 mM substrate, 10 mM MgCl2, 1 mM ATP, 1 mM NADPH, pH 7.5, room temperature, 20 min; absorbance at 340 nm
Experimental: (§7) A nucleotide sequence encoding a His-tag was added to the genes from Mycobacterium marinum, Mycobacterium smegmatis, Segniliparus rugosus, Mycobacterium massiliense, and Segniliparus rotundus that encode the carboxylate reductases of SEQ ID NOs: 2-4, 6 and 7, respectively (GenBank Accession Nos. ACC40567.1, ABK71854.1, EFV11917.1, EIV11143.1, and ADG98140.1, respectively) (see FIG. 10) such that N-terminal HIS tagged carboxylate reductases could be produced. Each of the modified genes was cloned into a pET Duet expression vector alongside a sfp gene encoding a His-tagged phosphopantetheine transferase from Bacillus subtilis, both under control of the T7 promoter. Each expression vector was transformed into a BL21[DE3] E. coli host along with the expression vectors from Example 3. Each resulting recombinant E. coli strain was cultivated at 37° C. in a 250 mL shake flask culture containing 50 mL LB media and antibiotic selection pressure, with shaking at 230 rpm. Each culture was induced overnight at 37° C. using an auto-induction media.
The pellet from each induced shake flask culture was harvested via centrifugation. Each pellet was resuspended and lysed via sonication. The cell debris was separated from the supernatant via centrifugation. […]
Enzyme activity (i.e., 5-hydroxypentanoate to 5-hydroxypentanal) assays were performed in triplicate in a buffer composed of a final concentration of 50 mM HEPES buffer (pH=7.5), 2 mM 5-hydroxypentanal, 10 mM MgCl2, 1 mM ATP, and 1 mM NADPH. […] The consumption of NADPH was monitored by absorbance at 340 nm.
The N-terminal His-tagged carboxylate reductase of SEQ ID NO 7 (see Example 2 and FIG. 10) was assayed using glutarate semialdehyde as substrate. […] The consumption of NADPH was monitored by absorbance at 340 nm.
The N-terminal His-tagged carboxylate reductase of SEQ ID NO 2-4 and 7 (see Example 2 and FIG. 10) was assayed using glutarate methyl ester as substrate. […] The consumption of NADPH was monitored by absorbance at 340 nm.

[10] = target: T2, Mycobacterium marinum carboxylate reductase (SEQ ID NO: 2), enhanced by the gene product of sfp (Mycobacterium marinum, UniProt B2HN69); assay: as above; assay type: biochemical; settings: SEQ ID NO 2 with sfp; 2 mM substrate, 10 mM MgCl2, 1 mM ATP, 1 mM NADPH, pH 7.5, room temperature, 20 min; absorbance at 340 nm
T2 construct: His-tag (N); made in house; host or cells: E. coli BL21[DE3], pET Duet
Experimental: as §7
(§8) The pellet from each induced shake flask culture was harvested via centrifugation. Each pellet was resuspended and lysed via sonication. The cell debris was separated from the supernatant via centrifugation. The carboxylate reductases and phosphopantetheine transferase were purified from the supernatant using Ni-affinity chromatography, diluted 10-fold into 50 mM HEPES buffer (pH=7.5) and concentrated via ultrafiltration.
(§9) Enzyme activity (i.e., 5-hydroxypentanoate to 5-hydroxypentanal) assays were performed in triplicate in a buffer composed of a final concentration of 50 mM HEPES buffer (pH=7.5), 2 mM 5-hydroxypentanal, 10 mM MgCl2, 1 mM ATP, and 1 mM NADPH. Each enzyme activity assay reaction was initiated by adding purified carboxylate reductase and phosphopantetheine transferase or the empty vector control to the assay buffer containing the 5-hydroxypentanoate and then incubated at room temperature for 20 min. The consumption of NADPH was monitored by absorbance at 340 nm.
(§10) The N-terminal His-tagged carboxylate reductase of SEQ ID NO 2-4 and 7 (see Example 2 and FIG. 10) was assayed using glutarate methyl ester as substrate. The enzyme activity assay was performed in triplicate in a buffer composed of a final concentration of 50 mM HEPES buffer (pH=7.5), 2 mM glutarate methyl ester, 10 mM MgCl2, 1 mM ATP and 1 mM NADPH. The enzyme activity assay reaction was initiated by adding purified carboxylate reductase and phosphopantetheine transferase or the empty vector control to the assay buffer containing the glutarate semialdehyde and then incubated at room temperature for 20 min. The consumption of NADPH was monitored by absorbance at 340 nm.

[11] = test system: Mycobacterium smegmatis carboxylate reductase (SEQ ID NO: 3), enhanced by the gene product of sfp; assay: as above; assay type: biochemical; settings: SEQ ID NO 3 with sfp; 2 mM substrate, 10 mM MgCl2, 1 mM ATP, 1 mM NADPH, pH 7.5, room temperature, 20 min; absorbance at 340 nm
Experimental: as §7, §8, §9, §10

[12] = test system: Segniliparus rugosus carboxylate reductase (SEQ ID NO: 4), enhanced by the gene product of sfp; assay: as above; assay type: biochemical; settings: SEQ ID NO 4 with sfp; 2 mM substrate, 10 mM MgCl2, 1 mM ATP, 1 mM NADPH, pH 7.5, room temperature, 20 min; absorbance at 340 nm
Experimental: as §7, §8, §9, §10

[13] = test system: transaminase of SEQ ID NO 10; assay: ω-transaminase enzyme activity assay in the forward direction, glutarate semialdehyde plus L-alanine to pyruvate; assay type: biochemical, Pseudomonas syringae; settings: 10 mM glutarate semialdehyde, 10 mM L-alanine, 100 μM pyridoxyl 5′ phosphate, pH 7.5, 25° C., 4 h, pyruvate by RP-HPLC
Experimental: as §6, §2
Enzyme activity in the forward direction (i.e., glutarate semialdehyde to 5-aminopentanoate) was confirmed for the transaminase of SEQ ID NO 10. Enzyme activity assays were performed in a buffer composed of a final concentration of 50 mM HEPES buffer (pH=7.5), 10 mM glutarate semialdehyde, 10 mM L-alanine and 100 μM pyridoxyl 5′ phosphate. […] The formation of pyruvate was quantified via RP-HPLC.

[14] = test system: Chromobacterium violaceum ω-transaminase (SEQ ID NO: 8); assay: ω-transaminase enzyme activity assay, amine substrate plus pyruvate to L-alanine (cell free extract); assay type: biochemical; settings: forward (amine-forming) direction, inferred from the reverse assay

T2 sequence (B2HN69 whole entry): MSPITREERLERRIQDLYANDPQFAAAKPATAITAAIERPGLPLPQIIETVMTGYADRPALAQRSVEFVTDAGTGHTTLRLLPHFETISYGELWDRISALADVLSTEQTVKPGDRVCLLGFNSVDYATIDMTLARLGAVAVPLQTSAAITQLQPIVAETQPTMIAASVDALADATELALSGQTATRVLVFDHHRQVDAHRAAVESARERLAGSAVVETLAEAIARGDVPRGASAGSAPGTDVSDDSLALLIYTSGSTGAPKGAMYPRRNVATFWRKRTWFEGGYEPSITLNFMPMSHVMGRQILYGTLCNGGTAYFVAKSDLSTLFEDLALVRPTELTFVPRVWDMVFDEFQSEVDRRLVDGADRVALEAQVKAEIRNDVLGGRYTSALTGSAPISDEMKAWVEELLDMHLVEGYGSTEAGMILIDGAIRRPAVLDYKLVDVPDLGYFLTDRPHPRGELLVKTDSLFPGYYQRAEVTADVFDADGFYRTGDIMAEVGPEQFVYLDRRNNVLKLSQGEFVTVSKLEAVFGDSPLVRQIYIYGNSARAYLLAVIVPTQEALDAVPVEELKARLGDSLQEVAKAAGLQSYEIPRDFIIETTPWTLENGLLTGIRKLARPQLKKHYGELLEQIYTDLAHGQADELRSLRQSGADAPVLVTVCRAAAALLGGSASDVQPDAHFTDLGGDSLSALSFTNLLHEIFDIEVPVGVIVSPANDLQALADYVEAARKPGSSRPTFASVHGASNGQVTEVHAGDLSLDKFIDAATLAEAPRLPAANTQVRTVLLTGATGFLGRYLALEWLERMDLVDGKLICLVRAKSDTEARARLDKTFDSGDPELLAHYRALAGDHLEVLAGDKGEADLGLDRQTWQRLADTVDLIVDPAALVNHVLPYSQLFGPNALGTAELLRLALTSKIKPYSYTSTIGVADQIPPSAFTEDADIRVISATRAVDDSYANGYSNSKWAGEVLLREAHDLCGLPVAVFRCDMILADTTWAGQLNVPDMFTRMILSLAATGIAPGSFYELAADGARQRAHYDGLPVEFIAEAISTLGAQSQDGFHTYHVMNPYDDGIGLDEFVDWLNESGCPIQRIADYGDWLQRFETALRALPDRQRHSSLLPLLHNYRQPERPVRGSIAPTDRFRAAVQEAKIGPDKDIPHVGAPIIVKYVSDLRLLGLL
T1 sequence (P42588 whole entry): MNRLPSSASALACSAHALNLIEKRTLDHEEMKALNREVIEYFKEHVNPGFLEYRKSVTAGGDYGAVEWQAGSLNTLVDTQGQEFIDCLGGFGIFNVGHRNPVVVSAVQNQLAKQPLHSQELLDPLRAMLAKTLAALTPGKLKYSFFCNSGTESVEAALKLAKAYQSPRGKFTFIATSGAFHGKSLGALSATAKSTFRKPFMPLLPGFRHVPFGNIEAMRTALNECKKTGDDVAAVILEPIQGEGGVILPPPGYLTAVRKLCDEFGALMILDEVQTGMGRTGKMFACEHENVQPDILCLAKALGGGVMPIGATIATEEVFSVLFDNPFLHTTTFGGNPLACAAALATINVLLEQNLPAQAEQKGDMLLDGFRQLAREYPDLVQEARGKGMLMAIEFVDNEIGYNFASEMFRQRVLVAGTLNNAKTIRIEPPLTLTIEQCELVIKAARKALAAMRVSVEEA
Chain of gene product of ygjG (P42588 whole entry): as above

SMILES: NCCCCCC(=O)O [6-aminohexanoate]
- activity for the conversion to adipate semialdehyde [1]: demonstrated analogous activity
- accepted as amino donor [2]: demonstrated analogous activity
- activity for the conversion to adipate semialdehyde [3]: demonstrated analogous activity

SMILES: NCCCCCN [cadaverine]
- accepted as substrate as confirmed against the empty vector control [4]: accepted
- accepted as diamine substrate (gene product of ygjG): accepts
- activity for the substrate [5]: demonstrated activity
- accepted as substrate as confirmed against the empty vector control [6]: accepted
- accepted as substrate as confirmed against the empty vector control [7]: accepted
- accepted as substrate as confirmed against the empty vector control [8]: accepted

SMILES: COC(=O)CCCC(=O)O [glutarate methyl ester]
- accepted as substrate as confirmed against the empty vector control [9]: accepted
- accepted as substrate as confirmed against the empty vector control [10]: accepted
- accepted as substrate as confirmed against the empty vector control [11]: accepted
- accepted as substrate as confirmed against the empty vector control [12]: accepted

SMILES: O=CCCCC(=O)O [glutarate semialdehyde]
- accepted as substrate as confirmed against the empty vector control [9]: accepted
- accepted as substrate as confirmed against the empty vector control [13]: accepted
- accepted as substrate, concluded from the reversibility of the ω-transaminase activity [14]: accepted
